The record followed here is ChEMBL document CHEMBL1201862, “PubChem BioAssay data set” (2004).

The target in experiment [1] is T1, Replicative DNA helicase DnaB (Mycobacterium tuberculosis, UniProt P9WMR3).
T1 sequence (P9WMR3 whole entry): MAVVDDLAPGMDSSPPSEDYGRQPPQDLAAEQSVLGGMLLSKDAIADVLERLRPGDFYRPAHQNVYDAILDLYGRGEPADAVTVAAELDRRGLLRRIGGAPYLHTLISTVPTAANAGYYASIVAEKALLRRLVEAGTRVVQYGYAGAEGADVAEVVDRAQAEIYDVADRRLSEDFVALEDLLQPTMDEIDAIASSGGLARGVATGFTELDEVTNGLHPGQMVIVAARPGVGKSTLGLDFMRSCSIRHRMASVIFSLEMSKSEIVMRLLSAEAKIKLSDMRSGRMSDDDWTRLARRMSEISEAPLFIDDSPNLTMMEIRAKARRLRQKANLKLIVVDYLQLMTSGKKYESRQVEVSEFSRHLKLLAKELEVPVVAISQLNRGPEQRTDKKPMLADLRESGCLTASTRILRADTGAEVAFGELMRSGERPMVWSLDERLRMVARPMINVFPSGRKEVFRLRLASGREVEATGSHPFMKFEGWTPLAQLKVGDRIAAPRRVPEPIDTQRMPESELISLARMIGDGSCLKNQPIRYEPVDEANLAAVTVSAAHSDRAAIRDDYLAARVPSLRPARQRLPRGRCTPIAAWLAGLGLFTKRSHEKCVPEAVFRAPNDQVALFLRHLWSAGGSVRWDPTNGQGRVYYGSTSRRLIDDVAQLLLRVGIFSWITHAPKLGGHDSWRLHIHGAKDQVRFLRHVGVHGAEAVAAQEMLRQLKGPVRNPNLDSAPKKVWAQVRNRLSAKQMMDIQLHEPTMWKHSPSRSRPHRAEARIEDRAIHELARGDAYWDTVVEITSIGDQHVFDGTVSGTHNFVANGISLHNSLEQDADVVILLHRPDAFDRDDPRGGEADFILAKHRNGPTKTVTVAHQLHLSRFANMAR
As to the kind of experiment: DnaB intein splicing inhibitors, dose response, biochemical, cell-free fluorescence (AID 449749). The class given is functional.

The target of experiment [2] is Heat shock protein HSP 90-alpha (Homo sapiens, UniProt P07900). The class given is functional, organism-based.
The next experiment addresses T2, Protein RecA (Mycobacterium tuberculosis, UniProt P9WHJ3).
T2 sequence (P9WHJ3 whole entry): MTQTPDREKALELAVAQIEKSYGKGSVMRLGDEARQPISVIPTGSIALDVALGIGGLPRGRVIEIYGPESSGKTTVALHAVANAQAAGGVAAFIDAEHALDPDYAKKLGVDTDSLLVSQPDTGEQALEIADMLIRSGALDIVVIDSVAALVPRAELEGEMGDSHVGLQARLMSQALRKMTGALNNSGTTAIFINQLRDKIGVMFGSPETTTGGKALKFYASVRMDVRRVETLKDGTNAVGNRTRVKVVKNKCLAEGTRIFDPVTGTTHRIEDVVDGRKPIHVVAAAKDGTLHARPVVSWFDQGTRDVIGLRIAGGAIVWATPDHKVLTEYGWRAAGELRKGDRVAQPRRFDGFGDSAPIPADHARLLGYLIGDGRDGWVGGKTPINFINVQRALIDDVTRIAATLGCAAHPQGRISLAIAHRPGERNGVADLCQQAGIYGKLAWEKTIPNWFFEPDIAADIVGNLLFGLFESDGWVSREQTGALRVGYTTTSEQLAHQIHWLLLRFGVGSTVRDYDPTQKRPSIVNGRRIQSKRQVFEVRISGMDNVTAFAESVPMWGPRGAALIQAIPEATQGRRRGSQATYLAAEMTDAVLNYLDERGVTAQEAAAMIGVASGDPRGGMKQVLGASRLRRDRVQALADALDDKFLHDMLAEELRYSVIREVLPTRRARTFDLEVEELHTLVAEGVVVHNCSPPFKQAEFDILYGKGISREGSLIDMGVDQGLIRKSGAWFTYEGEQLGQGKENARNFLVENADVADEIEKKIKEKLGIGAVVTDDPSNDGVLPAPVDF
Description: Fluorescence Cell-Free Homogeneous Dose Retest to Identify Inhibitors of RecA-Intein Splicing Activity. [Related pubchem assays (depositor defined):AID2097, AID2223, AID489010, AID492950]. The class given is functional.

In experiment [3] the target is T3, Sentrin-specific protease 6 (Homo sapiens, UniProt Q9GZR1).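 Also: Luminescence-based dose-response confirmatory assay of SENP6 inhibition, following up an ultra-high-throughput screen.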
T3 sequence (Q9GZR1 whole entry): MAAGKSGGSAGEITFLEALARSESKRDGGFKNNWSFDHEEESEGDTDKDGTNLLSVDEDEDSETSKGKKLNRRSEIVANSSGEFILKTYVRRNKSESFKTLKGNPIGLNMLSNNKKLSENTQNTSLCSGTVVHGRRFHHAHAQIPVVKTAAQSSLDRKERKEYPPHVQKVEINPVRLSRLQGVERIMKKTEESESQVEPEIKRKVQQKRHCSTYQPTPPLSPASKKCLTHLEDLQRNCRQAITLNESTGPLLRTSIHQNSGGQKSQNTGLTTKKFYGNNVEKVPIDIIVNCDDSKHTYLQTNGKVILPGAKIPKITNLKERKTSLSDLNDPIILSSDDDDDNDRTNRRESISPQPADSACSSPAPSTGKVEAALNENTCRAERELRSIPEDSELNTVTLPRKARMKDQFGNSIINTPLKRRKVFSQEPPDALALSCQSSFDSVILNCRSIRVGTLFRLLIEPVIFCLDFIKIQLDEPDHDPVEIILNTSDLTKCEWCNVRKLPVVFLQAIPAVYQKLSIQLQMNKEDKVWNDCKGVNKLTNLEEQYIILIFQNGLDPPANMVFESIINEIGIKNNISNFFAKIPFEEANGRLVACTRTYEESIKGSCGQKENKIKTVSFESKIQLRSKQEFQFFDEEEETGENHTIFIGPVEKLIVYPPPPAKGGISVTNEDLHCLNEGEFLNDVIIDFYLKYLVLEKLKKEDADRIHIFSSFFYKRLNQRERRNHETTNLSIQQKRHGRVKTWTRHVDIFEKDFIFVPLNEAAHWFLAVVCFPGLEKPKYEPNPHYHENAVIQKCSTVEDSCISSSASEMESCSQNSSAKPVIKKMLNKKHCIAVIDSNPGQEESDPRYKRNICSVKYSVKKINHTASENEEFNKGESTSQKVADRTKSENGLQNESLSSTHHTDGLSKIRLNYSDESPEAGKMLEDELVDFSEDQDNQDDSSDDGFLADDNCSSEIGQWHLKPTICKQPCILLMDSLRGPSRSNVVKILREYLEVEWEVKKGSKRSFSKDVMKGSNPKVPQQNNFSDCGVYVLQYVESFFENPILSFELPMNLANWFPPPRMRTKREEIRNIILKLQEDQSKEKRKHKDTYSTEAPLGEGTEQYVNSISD
It is filed as functional.

Molecules are shown by their SMILES. Counter-ions that a name gives are not always drawn. Active and inactive are the calls of the source.

As for `CCCCCCCCCCOC(=O)C[n+]1c(COc2ccc(C)cc2)n(C)c2ccccc21`, the AC50 in experiment [1] was 3.82 µM (active); in experiment [2] it was 19.3 µM (active). The EC50 at Protein RecA is 11.7 µM (active).

With `CCN1/C(=C\c2ccc3ccccc3[n+]2CC)Sc2cc(C)ccc21`, the AC50 in experiment [2] was 7.75 µM (active).

Consider `O=C(CCl)Oc1ccc2occ(C(=O)c3cccs3)c2c1`, for which the IC50 in experiment [3] was 30.7 µM (active). Besides, the concentration at half-maximal activity (AC50) in experiment [1] is 16.8 µM (active). In addition, the EC50 on Protein RecA is 19.3 µM (active).

Turning to `CC[C@@H](CO)NC(=O)[C@@H]1C=C2c3cccc4c3c(cn4C)C[C@H]2N(C)C1` [METHYSERGIDE MALEATE], the AC50 in experiment [1] is > 380 µM (inactive). Also, on Protein RecA, the EC50 is 237 µM (active).

`CCC(C)n1c(NC(=O)c2ccccc2)c(C#N)c2nc3ccccc3nc21` (stereo not given): the IC50 in experiment [3] is 0.984 µM (active).

For orientation: AC50 means the concentration giving half of the maximal activity seen. By EC50 is commonly meant the concentration needed to bring the measured effect to its halfway point. Broadly, the IC50 is the midpoint of a concentration-inhibition curve.
